Laboratory results as given in patent US9114117B2, “Compounds effective against cancer” (Ingo Schmidt-Wolf, priority 2009, dated 2015).

What was measured:
[1] = cited from earlier work
[2] = test system: cell line LAM-53; assay: Relative viability of cell line LAM-53 by FACS analysis; assay type: cell-based; settings: culture = 100%; for viability at 30 µM: 30 μM EA
Text: (§1) The peripheral blood lymphocytes (PBLs) out of the PBMCs were selected for the FACS analysis (FIG. 5). A toxicity of the cells induced a shift from viable cells to apoptotic cells (FIG. 6, 7). If the drug or its concentration is very toxic, the cells appear addition-ally in a higher extent necrotic.
(§2) DMSO, the solvent of EA and cic, was given to the cell line LAM-53 in a ratio of 1:100, as control. The values are related to the culture-control and expressed as mean±standard error of the mean (SEM) taken from 5 separate measurements. In FIG. 7 (A) samples were measured after 24, 48 and 72 h. After 0 h, the time of execution, the relative viability was defined as 100% for all samples. In FIG. 7 (B) the relative viability values for the samples measured after 24, 48 and 72 h.

[3] = test system: cell line OPM-2; assay: Relative apoptosis of myeloma cell line OPM-2 by FACS analysis; assay type: cell-based; settings: culture = 0%
Text: as §1
as §2, with “line OPM-2” for “line LAM-53”, “FIG. 12” for “FIG. 7”, “relative apoptosis” for “relative viability”, “as 0%” for “as 100%”

[4] = test system: cell line Raji; assay: Relative viability of cell line Raji by FACS analysis; assay type: cell-based; settings: Homo sapiens, culture = 100%; for viability at 30 µM: 30 μM EA; for viability at 10 µM: 10 μM cic
Text: as §1
as §2, with “line Raji” for “line LAM-53”, “FIG. 13” for “FIG. 7”

[5] = test system: cell line LAM-53; assay: Relative apoptosis of cell line LAM-53 by FACS analysis; assay type: cell-based; settings: culture = 0%
Text: as §1
as §2, with “FIG. 8” for “FIG. 7”, “relative apoptosis” for “relative viability”, “as 0%” for “as 100%”

[6] = test system: cell line OPM-2; assay: Relative viability of myeloma cell line OPM-2 by FACS analysis; assay type: cell-based; settings: Homo sapiens, culture = 100%; for viability at 30 µM: 30 μM EA; for viability at 10 µM: 10 μM cic
Text: as §1
as §2, with “line OPM-2” for “line LAM-53”, “FIG. 11” for “FIG. 7”

[7] = Relative viability of PBMCs by FACS analysis; assay type: cell-based; settings: culture = 100%
Text: as §1
as §2, with “the PBMCs” for “the cell line LAM-53”, “FIG. 5” for “FIG. 7”, “as […])” for “as 100%”

[8] = test system: cell line DHL-4; assay: Relative viability of cell line DHL-4 by FACS analysis; assay type: cell-based; settings: culture = 100%; for viability at 30 µM: 30 μM EA; for viability at 10 µM: 10 μM cic
Text: as §1
as §2, with “line DHL-4” for “line LAM-53”, “FIG. 9” for “FIG. 7”

[9] = test system: cell line Raji; assay: Relative apoptosis of cell line Raji by FACS analysis; assay type: cell-based; settings: culture = 0%
Text: as §1
as §2, with “line Raji” for “line LAM-53”, “FIG. 14” for “FIG. 7”, “relative apoptosis” for “relative viability”, “as 0%” for “as 100%”

[10] = test system: PBMCs; assay: Relative apoptosis of PBMCs by FACS analysis; assay type: cell-based; settings: culture = 0%
Text: as §1
as §2, with “the PBMCs” for “the cell line LAM-53”, “FIG. 6” for “FIG. 7”, “relative apoptosis” for “relative viability”, “as 0%” for “as 100%”

[11] = test system: cell line DHL-4; assay: Relative apoptosis of cell line DHL-4 by FACS analysis; assay type: cell-based; settings: culture = 0%
Text: as §1
as §2, with “line DHL-4” for “line LAM-53”, “FIG. 10” for “FIG. 7”, “relative apoptosis” for “relative viability”, “as 0%” for “as 100%”

[12] = per day; cited from earlier work

## Cc1cc(C2CCCCC2)n(O)c(=O)c1 [Ciclopirox, 6-cyclohexyl-1-hydroxy-4-methyl-1,2-dihydropyridin-2-one]
[1]; methanol
  solubility in methanol: soluble

## C=C(CC)C(=O)c1ccc(OCC(=O)O)c(Cl)c1Cl [EA, 2-[2,3-dichloro-4-(2-methylidenebutanoyl)phenoxy]acetic acid]
[2]; 24 h
  viability at 30 µM: 96.7%
[2]; 48 h
  viability at 30 µM: 96.2%
[2]; 72 h
  viability at 30 µM: 91%
[3]; 30 μM EA, 24 h
  relative apoptosis: 2.3%
[3]; 30 μM EA, 48 h
  relative apoptosis: 7.5%
[3]; 30 μM EA, 72 h
  relative apoptosis: 13.4%
[4]; 24 h
  viability at 30 µM: 95.7%
[4]; 48 h
  viability at 30 µM: 90.7%
[4]; 72 h
  viability at 30 µM: 78.9%
[1]; e.g. alcohols, chloroform, and benzene
  solubility in most organic solvents: soluble
[1]; water
  solubility in water: slightly soluble
[5]; 30 μM EA, 24 h
  relative apoptosis: 0.7%
[5]; 30 μM EA, 48 h
  relative apoptosis: 1.5%
[5]; 30 μM EA, 72 h
  relative apoptosis: 1.8%
[6]; 24 h
  viability at 30 µM: 96.4%
[6]; 48 h
  viability at 30 µM: 84.2%
[6]; 72 h
  viability at 30 µM: 58%
[7]; 30 μM EA, 24 h
  viability at 24 h, 30 μM: 98.9%
[7]; 30 μM EA, 48 h
  viability at 48 h, 30 μM: 94.9%
[7]; 30 μM EA, 72 h
  viability at 72 h, 30 μM: 89.5%
[8]; 24 h
  viability at 30 µM: 91.7%
[8]; 48 h
  viability at 30 µM: 96%
[8]; 72 h
  viability at 30 µM: 97.6%
[9]; 30 μM EA, 24 h
  relative apoptosis: 2.4%
[9]; 30 μM EA, 48 h
  relative apoptosis: 4.8%
[9]; 30 μM EA, 72 h
  relative apoptosis: 9.8%
[10]; 30 μM EA, 24 h
  relative apoptosis: 1.3%
[10]; 30 μM EA, 48 h
  relative apoptosis: 3.9%
[10]; 30 μM EA, 72 h
  relative apoptosis: 7.6%
[11]; 30 μM EA, 24 h
  relative apoptosis: 6.7%
[11]; 30 μM EA, 48 h
  relative apoptosis: 2.0%
[11]; 30 μM EA, 72 h
  relative apoptosis: 1.2%

## Cc1cc(C2CCCCC2)n(O)c(=O)c1 [cic, Ciclopirox olamine]
[2]; 10 μM cic, 48 h
  relative viability: 52.9%
[2]; 24 h, 10 μM cic
  viability at 10 µM: 76.2%
[2]; 72 h, 10 μM cic
  viability at 10 µM: 32.4%
[3]; 10 μM cic, 24 h
  relative apoptosis: 4.0%
[3]; 10 μM cic, 48 h
  relative apoptosis: 15.3%
[3]; 10 μM cic, 72 h
  relative apoptosis: 34.8%
[12]
  maximum concentration in human systemic tolerability studies: 275 µM
[4]; 24 h
  viability at 10 µM: 83.8%
[4]; 48 h
  viability at 10 µM: 45.6%
[4]; 72 h
  viability at 10 µM: 21.7%
[5]; 10 μM cic, 24 h
  relative apoptosis: 12.2%
[5]; 10 μM cic, 48 h
  relative apoptosis: 34.4%
[5]; 10 μM cic, 72 h
  relative apoptosis: 51.2%
[6]; 24 h
  viability at 10 µM: 93.6%
[6]; 48 h
  viability at 10 µM: 72.5%
[6]; 72 h
  viability at 10 µM: 29.4%
[7]; 10 μM cic, 24 h
  viability at 24 h, 10 μM: 99.3%
[7]; 10 μM cic, 48 h
  viability at 48 h, 10 μM: 98.3%
[7]; 10 μM cic, 72 h
  viability at 72 h, 10 μM: 94.4%
[8]; 24 h
  viability at 10 µM: 93%
[8]; 48 h
  viability at 10 µM: 90.3%
[8]; 72 h
  viability at 10 µM: 55.9%
[9]; 10 μM cic, 24 h
  relative apoptosis: 14.1%
[9]; 10 μM cic, 48 h
  relative apoptosis: 31.0%
[9]; 10 μM cic, 72 h
  relative apoptosis: 30.0%
[10]; 10 μM cic, 24 h
  relative apoptosis: 0.4%
[10]; 10 μM cic, 48 h
  relative apoptosis: 1.4%
[10]; 10 μM cic, 72 h
  relative apoptosis: 3.3%
[11]; 10 μM cic, 24 h
  relative apoptosis: 5.8%
[11]; 10 μM cic, 48 h
  relative apoptosis: 5.0%
[11]; 10 μM cic, 72 h
  relative apoptosis: 30.8%
